This assay deals with influenza virus A/California/07/09 (H1N1) pdm09. On the set-up: species or system mice. Conditions: mouse, in vivo.

Values joined by “and” are separate entries in the source; they are usually repeats but may differ in a detail not shown here. Identical values can stand only once. Counter-ions that a name gives are not always drawn.

Consider `CCOC(=O)C1=C[C@@H](OC(CC)CC)[C@H](NC(C)=O)[C@@H](N)C1` [Tamiflu], for which the “Time after infection within which the drug must be administered for greatest efficacy” value was not above 24 h.
As for `CSc1nc2[nH]nc([N+](=O)[O-])c(=O)n2n1` [Triazavirin, sodium salt of 2-methylthio-6-nitro-1,2,4-triazolo[5,1-c]1,2,4-triazine-7-one, dihydrate], the “Mice rescued from infection” value stood at 80%. Moreover, where the note is “100 mg/kg/day, dihydrate”, the “Index of protection %” value is 63% and 62.5%. Moreover, under “po, 100 mg/kg/day”, the “AST (average life span of animals)” value stood at 13.7 cyr, the “Mortality by day: 7” value was found to be 1, the “Mortality by day: 8” value is reported as 1 and the “Mortality by day: 10” value was determined as 1. Besides, where the note is “po, 100 mg/kg/day”, the “Mortality, %” value was 20.0%.
